Values quoted from earlier work as cited in paper PMC4061760 (Tetrahedron, 2009).

Tested on: Plk1 PBD
Details: 5-mer phosphopeptide

## PLHSpT [Peptide 22]
  interaction with the Plk1 PBD: specifically interacts with the Plk1 PBD with high affinity
